Data on three compounds can be found in patent US20260112450A1, “METHODS FOR SELECTION OF CANCER PATIENTS FOR ANTI-ANGIOGENIC AND IMMUNE CHECKPOINT BLOCKAGE THERAPIES AND COMBINATIONS THEREOF” (Washington University, priority 2022, published 2026).

The subject of assay [1] is clear cell renal carcinoma. Briefly: Braun dataset (Checkmate 025 and Checkmate 010): overall survival, re-evaluated by angio-immune subtype. The settings on record: for differences in median OS between angio-immune molecular subtypes: comparison of C1, C2 and C3 within one treatment arm. The class given is in vivo, human. An excerpt: (§1) Immunotherapy datasets: Pre-treatment TPM normalized RNA sequencing data from anti-PD1/L1 and anti-CTLA4 treated cohorts were downloaded for the studies as described in Table 1. Studies were selected based on the following criteria: >20 samples for enrichment calculation, RNA sequencing of pre-treatment biopsies, and only anti-PD1/PDL1 treated patients. Gene signature enrichment and molecular subtypes were derived as described elsewhere in the manuscript. Survival and response rates to treatment when available were compared among angio-immune clusters.
(§2) Quantification and Statistical Analysis: Unless indicated elsewhere, all visualizations were completed in GraphPad Prism 9. GraphPad Prism 9 was used for all statistical analysis. Data is presented as mean±standard error of mean. One way ANOVA was used for comparison across more than two groups. Non-parametric tests were used when data was not normally distributed. Log rank tests were used for all survival analysis. Alpha value of 0.05 was used throughout the study.
(§3) The approval of the combination of avelumab, an anti-PDL1, and axitinib, a small molecule tyrosine kinase inhibitor, for the first-line treatment of metastatic renal cancer was provided in 2020. […] Next, it was sought to ascertain if stratification by angio-immune subtypes can confer more significant differences in responses and survival.
(§4) The enrichment of the 91 angio-immune signatures was scored using RNA sequencing data from pre-treatment biopsies.
Survival was tracked across clusters to identify if angio-immune molecular subtypes can inform treatment choice in this setting. […] To determine if patients belonging to C1, C2, and C3 derive clinical benefit from Nivolumab over everolimus, OS was tracked among angio-immune molecular subtypes across treatment arms.

The subject of the next assay is metastatic renal cancer. In words: Javelin Renal 101 clinical trial: progression free survival, re-evaluated by angio-immune subtype. The class given is in vivo, human.
Description: as §1, §2, §3, §4
Survival was tracked across clusters to identify if angio-immune molecular subtypes can inform treatment choice in this setting.

[2] abbreviates: all patients with pre-treatment RNA sequencing data, Braun dataset.
Setting [3] is: patients in angio-immune subtype C1, Braun dataset.
Where [4] appears, read: patients in angio-immune subtype C2, Braun dataset.
[5] abbreviates: patients in angio-immune subtype C3, Braun dataset.

Several values for one entry are separate records, joined by “and”; a condition that tells them apart may be missing. Equal entries are not always repeated.

Nivolumab: an anti-PD1 therapy: the “median OS” value in assay [1] (setting [2]) is 25.9877 months; in assay [1] (setting [3]), 16.9528 months; in assay [1] (setting [4]), 36.961 months and 36.96 months; in assay [1] (setting [5]), 29.8645 months and 29.86 months. The “differences in median OS between angio-immune molecular subtypes” value in assay [1] is “significant improvement in median OS”. In addition, the “clinical benefit (OS) compared to everolimus” value is on record as “no clinical benefit” in assay [1] (patients in C1, p=0.6347) and “no statistically significant clinical benefit” in assay [1] (patients in C2, p=0.0581). The “median OS compared to the everolimus arm” value in assay [1] (patients in C3, p<0.0043) is reported as “significantly improved”.

In the case of `CCN(CC)CCNC(=O)c1c(C)[nH]c(/C=C2\C(=O)Nc3ccc(F)cc32)c1C` [sunitinib], the “median PFS” value in the assay with metastatic renal cancer (all patients with pre-treatment RNA sequencing data, Javelin Renal 101 dataset) worked out at 8.4 months; in the assay on metastatic renal cancer (patients in angio-immune subtype C1, Javelin Renal 101 dataset), 9.7 months; in the assay on metastatic renal cancer (patients in angio-immune subtype C2, Javelin Renal 101 dataset), 8.3 months; with metastatic renal cancer (patients in angio-immune subtype C3, Javelin Renal 101 dataset), 8.2 months.

Take `CO[C@H]1C[C@@H]2CC[C@@H](C)[C@@](O)(O2)C(=O)C(=O)N2CCCC[C@H]2C(=O)O[C@H]([C@H](C)C[C@@H]2CC[C@@H](OCCO)[C@H](OC)C2)CC(=O)[C@H](C)/C=C(\C)[C@@H](O)[C@@H](OC)C(=O)[C@H](C)C[C@H](C)/C=C/C=C/C=C/1C` [everolimus]: the “median OS” value in assay [1] (setting [2]) is reported as 19.7454 months; in assay [1] (setting [3]) it was 24.6735 months; in assay [1] (setting [4]), 21.13 months; in assay [1] (setting [5]), 13.27 months. For the same compound, the “differences in median OS between angio-immune molecular subtypes” value in assay [1] was “no significant differences”.
